Laboratory results taken from US20140227333A1, “DRY ACTIVE OXYGEN TECHNOLOGY” (ECOLAB USA INC., priority 2013, published 2014).
Read-outs that look alike come from different tables or passages of the source.

Columns and labels:
[1] = Titration of hydrogen peroxide concentration, initially and 24 hours later (stability of the active oxidant); type: physicochemical; conditions: titrated initially and 24 hours later
Method: The dry-to-touch powder compositions generated in Example 2 were further analyzed for stability of the active oxidant. The compositions were titrated initially and 24 hours later, giving nearly the same resulting amount of hydrogen peroxide concentration in the untreated liquid composition (35%) and the dry-to-touch powder composition (31%).

[2] = cited from earlier work

hydrogen peroxide concentration [1] [%]	Molecule	PEI protonated ([2]; pH 2)	PEI protonated ([2]; pH 4)	PEI protonated ([2]; pH 5)	PEI protonated ([2]; pH 8)	PEI protonated ([2]; pH 10)
35	OO [liquid hydrogen peroxide (35%), hydrogen peroxide]					
	polyethyleneimine [PEI]	about 73%	about 50%	about 33%	about 25%	about 4%
